Each structure is given as a SMILES string.

This is an account of results in the pKa sets of Baltruschat and Czodrowski (2020).

For the first data set the following is noted: acidic group.
For orientation: pKa means the pH at which an ionisable group is half protonated. A low value points to a stronger acid or weaker base. Consider `CCn1cccc(O)c1=O`, for which the pKa was found to be 8.99.
Take `COC(=O)c1ccc(O)cc1`: the pKa came out at 8.34.
Still for that read-out and setting: the result for `Oc1ccc(O)[nH+]n1` reads -2.2; that for `O=C(O)/C=C\c1cccc([N+](=O)[O-])c1`, 3.63.
Same read-out and setting: the result for `O=C(O)Cc1ccsc1` reads 4.07; that for `CC(C)(C(N)=O)S(=O)(=O)NC(N)=O`, 5.15.
`O/N=C1\CCCC\C1=N/O` showed a pKa of 10.5.
Still for that read-out and setting: then `CCC1(CC)C(=O)NC(=O)N(C(=O)c2ccccc2OC)C1=O`, with 6.54.
The same measure, in the same setting: the result for `Cc1c(Cl)cccc1C(=O)O` reads 3.43.
Still for that read-out and setting: then `Nc1nc2cc3ccccc3cc2[nH]1`, with 12.8; and `O=C(O)c1cccc(F)c1`, with 3.9.
`CCCCOc1cccc(C(=O)O)c1` returned a pKa of 4.25.
Still for that read-out and setting: then `C[n+]1cc(S)cc2ccccc21`, with 2.4; and `C/C(=C\C=C\C(C)C(=O)O)[C@H]1C[NH2+][C@H](C(=O)[O-])[C@H]1CC(=O)[O-]` (some centres not stated), with 4.93.
Still for that read-out and setting: the result for `C[Si](C)(C)O[Si](C)(C)CCCC(=O)O` reads 5.03; that for `C[N+](C)(C)c1cc([N+](=O)[O-])ccc1O`, 4.35; that for `CCC(C)[C@H]([NH3+])C(=O)O` (some centres not stated), 2.26.
Same read-out and setting: then `COc1ccc(-c2nnn[nH]2)cc1`, with 4.23; and `CCOC(=O)c1ccc(O)cc1`, with 9.34; and `c1ccc(Nc2nnn[nH]2)cc1`, with 6.3.
`Cc1ccc(C(=O)O)c([N+](=O)[O-])c1`: the pKa was 2.68.
The same measure, in the same setting: the result for `Oc1ccc2ccc3ccccc3c2c1` reads 9.28; that for `C[n+]1cccc2c(O)cccc21`, 6.12.
Still for that read-out and setting: then `C[NH+](C)CC(P(=O)([O-])O)P(=O)([O-])O`, with 5.75; and `O=C1C(O)=C(/C=C/c2ccccc2)C(=O)c2ccccc21`, with 4.44; and `NCc1ccc(S(N)(=O)=O)cc1`, with 10.2.
On to `COC(=O)CCS`, for which the pKa amounted to 9.33.
With `Cn1cc([NH3+])cc1C(=O)O`, the pKa was found to be 3.5.
The same measure, in the same setting: the result for `COC(=O)CC(=O)c1ccncc1` reads 8.24; that for `CC(=O)C(C)C(=O)C(C)C` (configuration not stated), 11.8; that for `O=C(O)c1cc([N+](=O)[O-])ccc1C(=O)c1ccccc1`, 2.86.
Same read-out and setting: the result for `Cc1ccc(S(=O)O)cc1` reads 1.82.
Same read-out and setting: the result for `CC(=O)C1C(=O)OC(=O)C=C1C` (configuration not stated) reads 1.34; that for `Cc1cc(C(=O)O)c[nH]1`, 5.35; that for `Cn1cnc(/N=N/O)n1`, 5.48.

The same data set, now with this note: basic group.
`CN(C)CCBr` gave a pKa of 7.55.
As to `CSc1ccc(N)cc1I`, the pKa turned out to be 3.44.
On the same count and under the same terms, then `CCCN(N)CCC`, with 7; and `CNC(=O)c1ccccn1`, with 2.4; and `Nc1cccc2cc3ccccc3nc12`, with 4.4.
The same measure, in the same setting: the result for `Nc1ccc2c(c1)-c1c(ccc3ccccc13)C2` reads 4.67; that for `Nc1nc2cc3ccccc3cc2[nH]1`, 7.01; that for `CC(CC(O)(c1ccccc1)c1ccccc1)N1CCCCC1` (configuration not stated), 8.62.
Still for that read-out and setting: the result for `CSc1cnc2ccccc2c1` reads 3.88.
`[S-]c1ncnc2ncncc12` came in with a pKa of 6.23.
Still for that read-out and setting: then `CNCCCCc1ccccc1`, with 10.8; and `NC[C@H]1CCCC[C@@H]1O`, with 10.2; and `C[NH2+]CCNCC[NH3+]`, with 4.64.
On the same count and under the same terms, the result for `N/C(CC[NH2+]c1ccccc1)=N\O` reads 2.45; that for `c1ccc(N=C(Nc2ccccc2)Nc2ccccc2)cc1`, 9.1; that for `NCc1ccc(S(N)(=O)=O)cc1`, 8.35.
The same measure, in the same setting: the result for `SCCN(Cc1ccccc1)Cc1ccccc1` reads 7.62.
In turn, `CC(C)C(N)C(=O)O` (configuration not stated) had a pKa of 9.58.
On the same count and under the same terms, then `CN(C)CCC(=O)[O-]`, with 9.85.
Same read-out and setting: then `CCOCCn1c(N2CCC[NH+](CCCCn3cc(C(=O)[O-])cn3)CC2)nc2ccccc21`, with 5.1.
Still for that read-out and setting: then `Cc1cc(-c2cc(C)[nH+][nH]2)[nH]n1`, with 0.4.
For `C1=C(c2nc3ccccc3o2)C2CCN1CC2`, the pKa was 7.23.
